According to patent EP1925625A2, “Method for screening modulators of mitochondrial functionning and new modulators obtained” (Theraptosis S.A., priority 2002, dated 2008):

Assays:
[1] = tested on: purified mouse liver mitochondria; test: Flow cytometric (real-time FCM) analysis of mitochondrial morphology (FSC/SSC) on isolated mitochondria; details: for changes of mitochondrial size (FSC) and structure (SSC): 1-30 µM Calcium, 20 µM CCCP or alamethicin added to isolated mitochondria; for effect on alamethicin induced MMP: pre-treatment with inhibitor, then alamethicin (5 µg/ml)
Description: (§1) Liver mitochondria were isolated from 3-4 weeks old Balb-c mice (IFFA CREDO, Saint Germain sur l'Arbresle, France). Animals were fasted overnight before being killed by […] dislocation. Liver mitochondria were prepared as described (Jacotot, 2000). All steps were carried out at 4°C. Finally, the organelles were resuspended in 'swelling buffer', composed by 200 mM sucrose, 5 mM succinate, 10 mM Tris-MOPS (pH 7.4), 1 mM H3PO4, 2 µM Rotenone, and 10 µM EGTA at pH=7.4. Spectrophotometric and flow cytometric analyses were performed in this buffer. The protein content of isolated mitochondria was determined by the Bradford assay.
Fluorescence-activated flow cytometry was performed using a 3-color FACSCalibur cytometer equipped with a 15 mW air-cooled 488 nm argon laser (Becton Dickinson, San Jose, CA). Mitochondria analyses were performed after appropriate settings of the Forward angle light scatter (FSC) - Side angle light scatter (SSC) detectors (see Fig. 1). Discrimination between mitochondria and cellular debris and noise background was performed by an appropriate gating on FSC-SSC scatter plots (Fig. 1)(Radcliff G, Jaroszeski MJ 1998 Methods Mol Biol 91:1-24 Basics of flow cytometry). Systematic confirmation of the validity of this gating was obtained by a labeling of mitochondria with the ΔΨm-insensitive mitochondrial dye MitoTracker® Green (MTG, Molecular Probes, Eugene, OR) (Jacotot et al., 2001). Briefly mitochondria (1.5 µg proteins) were respuspended in 400 µl swelling buffer containing 200 nM MTG for 15 min at room temperature. The organelles were immediately analyzed on the cytometer with the CellQuest Pro software (Becton Dickinson). MTG fluorescence was collected in the FL-1 channel (530 +/- 15 nm) and analyzed in logarithmic amplifier mode, using the PMT at a voltage adjusted to 907. Data from 20,000 gated mitochondria were recorded and analyzed.
Mitochondrial size was analyzed through the light scattered by the organelles at low angle using the Forward scatter (FSC) photodiode. Signals were collected using the E-00 setting, with a logarithmic amplification gain of 5.41. Mitochondrial structure was evaluated by the light scattered in the perpendicular direction. It was assessed by the sensitive Side scatter (SSC) photomultiplier tube (PMT), using a voltage of 581, and a linear amplification gain adjusted to 4.27. The morphological changes related to swelling of purified mitochondria were monitored by the increase in mitochondrial size (FSC) and the decrease in the organelle structure (SSC) using the CellQuest Pro software. The FSC/SSC ratio was calculated by the FCS Assistant software and permitted to integrate both variations in size and structure into only one parameter.
Fixed-time analyses were performed on mitochondrial samples containing 10 µg proteins in 100 µl of swelling buffer. Samples were submitted to MPP-inducing reagents for 30 min at 25°C. Samples were immediately analyzed by flow cytometry, and data from 20.000 mitochondria were recorded. The percentage of specific swelling determined on forward scatter was calculated as follows; (FSCCa2+ - FSCReagent ) x 100 / (FSCCa2+ - FSCCo), were FSCCa2+, FSCReagent and FSCCo correspond to the FSC values obtained for CaCl2- treated, reagent - treated and untreated mitochondria respectively. Similar calculation was used to determine the percentage of specific swelling on SSC and FSC/SSC ratio values.
Real-time experiments were performed on mitochondrial samples containing 1.5 µg proteins in 800 µl (= 2 ng / […]l) of swelling buffer. Samples were acquired on the flow cytometer for 5 minutes to record basal morphological criteria. Then reagents were added to samples, and variations in light scattering were recorded for the following 15 minutes. The sample flow rate was settled to 12 µl +/- 3 µl / min for both fixed- and real-time analyses. […]

[2] = tested on: purified mouse liver mitochondria; test: Flow cytometric analysis of mitochondrial transmembrane potential (JC-1) on isolated mitochondria; details: for changes of JC-1 fluorescence (ΔΨm): real-time, 20 µM mClCCP, 30 µM Ca2+ or alamethicin
Description: as §1
Mitochondrial transmembrane potential (ΔΨm) was assessed by 5,5',6,6',-tetracholoro-1,1,3,3'-tetraethylbenzimidazolyl carbocyanine iodide (JC-1, Molecular Probes) incorporation. This potential-sensitive cationic dye accumulates in the mitochondrial matrix according to the Nernst equation (Reers et al., 1991). JC-1 green fluorescence, associated with JC-1 monomers was collected in the FL-1 channel. JC-1 orange fluorescence, associated with the formation of J-aggregates was collected in the FL-2 channel (585 +/- 21 nm) (Reers et al, 1991). Both fluorescences were recorded in logarithmic amplifier mode, using the PMT at a voltage adjusted to 907 and 622 respectively. Spectral overlap was avoided by adjusting compensation network as follows: FL1 - 18.5% FL2 and FL2 - 25.4% FL1. The JC-1 orange green fluorescence ratio was calculated with the FCS Assistant software.
Fixed-time detection of ΔΨM was performed on mitochondrial samples containing 10 µg proteins in 100 µl of swelling buffer. Samples were submitted to MPT-inducing drugs for 15 min at 25°C, and JC-1 was added at 800 nM for 15 min at 37°C in the dark. Samples were immediately analyzed by flow cytometry, and data from 20.000 mitochondria (gated on FSC-SSC parameters) were recorded. This assay permitted to quantify the percentage of highly energized mitochondria (with both orange and green fluorescence) and depolarized mitochondria (with green fluorescence only) as depicted in part C2 of Fig.1.
Real-time monitoring of ΔΨm was performed on mitochondrial samples containing 1.5 µg proteins in 400 µl of swelling buffer. JC-1 loading was performed at 400 nM in for 15 minutes at 37°C. […] Then drugs were added to the sample, and ΔΨm variations were recorded for the following 16 minutes. Depolarization curves were drawn as previously indicated for swelling curves; the time scale was divided into discrete periods of 1 minute and the mean of JC-1 orange and JC-1 green fluorescence of the corresponding mitochondrial subsets was calculated by the CellQuest Pro software and exported into the Microsoft Excel software.

[3] = 50 µM BA or 10 µM CsA 5 minutes, then 30 min Ca2+ (30 µM)

Molecule | changes of mitochondrial size (FSC) and structure (SSC) [1] | changes of JC-1 fluorescence (ΔΨm) [2] | effect on alamethicin induced MMP [1] | effect on Ca2+ induced SSC decrease [1, 3] | effect on Ca2+ induced ΔΨm loss [2, 3]
N#CC(C#N)=NNc1cccc(Cl)c1 [CCCP, carbonyl cyanide meta-chlorophenylhydrazone] | low but significant granularity (SSC) decrease without detectable size (FSC) changes | rapid decrease in JC-1 orange fluorescence and a slow decrease in monomeric JC-1 green fluorescence |  |  | 
[Ca+2].[Cl-].[Cl-] [Calcium, CaCl2] | dose-dependent SSC decrease and FSC increase | a decrease in JC-1 orange fluorescence and a significant increase in JC-1 green fluorescence |  |  | 
N.N.N.N.N.N.N.N.N.N.N.N.N.N.[Cl-].[Cl-].[Cl-].[Cl-].[Cl-].[Cl-].[O-2].[O-2].[Ru+3].[Ru+3].[Ru+4] [Ruthenium red] |  |  | not affected |  | 
CO[C@H](C/C=C\C=C\CC/C=C/C[C@H](C)/C=C/C(=C\C(=O)O)CC(=O)O)/C(C)=C\C=C(/C)C(=O)O [bongkrekic acid] |  |  | not affected | partly affect | strongly reduces
alamethicin | simultaneous FSC increase and SSC decrease | a decrease in JC-1 orange fluorescence and a significant increase in JC-1 green fluorescence |  |  | 
